Data published in BindingDB's records for doi:10.1016/s0960-894x(98)00583-6 (Novartis Horsham Research Center, 1999).

Each molecule was assayed against cGMP-inhibited 3',5'-cyclic phosphodiesterase 3A/3B (Homo sapiens, UniProt Q13370+Q14432) (assay: Inhibition of phosphodiesterase (PDE) 3).
cGMP-inhibited 3',5'-cyclic phosphodiesterase 3A/3B, sequence (Q14432 whole entry): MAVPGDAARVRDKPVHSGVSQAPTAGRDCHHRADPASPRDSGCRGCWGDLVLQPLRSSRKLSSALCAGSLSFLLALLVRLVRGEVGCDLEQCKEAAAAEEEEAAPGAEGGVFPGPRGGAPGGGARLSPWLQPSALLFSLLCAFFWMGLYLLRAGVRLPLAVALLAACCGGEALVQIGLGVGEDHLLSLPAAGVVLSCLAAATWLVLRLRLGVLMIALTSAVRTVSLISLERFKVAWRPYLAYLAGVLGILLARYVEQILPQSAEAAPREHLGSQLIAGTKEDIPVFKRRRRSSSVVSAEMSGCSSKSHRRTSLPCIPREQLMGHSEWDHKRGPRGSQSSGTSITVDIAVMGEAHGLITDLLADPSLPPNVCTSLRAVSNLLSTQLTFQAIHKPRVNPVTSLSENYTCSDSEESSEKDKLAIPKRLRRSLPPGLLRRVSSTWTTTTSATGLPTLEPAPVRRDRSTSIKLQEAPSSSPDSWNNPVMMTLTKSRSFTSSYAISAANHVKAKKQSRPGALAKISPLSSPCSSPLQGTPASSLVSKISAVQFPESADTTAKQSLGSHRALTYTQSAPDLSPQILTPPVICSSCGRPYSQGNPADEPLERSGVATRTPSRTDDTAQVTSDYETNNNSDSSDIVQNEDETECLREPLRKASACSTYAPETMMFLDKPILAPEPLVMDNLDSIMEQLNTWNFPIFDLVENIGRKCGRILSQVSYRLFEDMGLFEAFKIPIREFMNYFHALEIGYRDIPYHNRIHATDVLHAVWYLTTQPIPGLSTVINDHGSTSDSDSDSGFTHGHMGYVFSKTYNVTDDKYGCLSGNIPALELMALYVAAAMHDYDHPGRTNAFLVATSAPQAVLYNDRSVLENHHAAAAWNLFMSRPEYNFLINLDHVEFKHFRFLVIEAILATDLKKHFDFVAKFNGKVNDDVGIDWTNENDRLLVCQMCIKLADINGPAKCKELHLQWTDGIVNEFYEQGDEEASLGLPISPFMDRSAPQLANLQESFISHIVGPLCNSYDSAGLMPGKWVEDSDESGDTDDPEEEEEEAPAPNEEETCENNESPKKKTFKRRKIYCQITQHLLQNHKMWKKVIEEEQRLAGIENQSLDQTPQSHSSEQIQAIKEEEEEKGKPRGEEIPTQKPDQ
cGMP-inhibited 3',5'-cyclic phosphodiesterase 3A/3B, sequence (Q13370 whole entry): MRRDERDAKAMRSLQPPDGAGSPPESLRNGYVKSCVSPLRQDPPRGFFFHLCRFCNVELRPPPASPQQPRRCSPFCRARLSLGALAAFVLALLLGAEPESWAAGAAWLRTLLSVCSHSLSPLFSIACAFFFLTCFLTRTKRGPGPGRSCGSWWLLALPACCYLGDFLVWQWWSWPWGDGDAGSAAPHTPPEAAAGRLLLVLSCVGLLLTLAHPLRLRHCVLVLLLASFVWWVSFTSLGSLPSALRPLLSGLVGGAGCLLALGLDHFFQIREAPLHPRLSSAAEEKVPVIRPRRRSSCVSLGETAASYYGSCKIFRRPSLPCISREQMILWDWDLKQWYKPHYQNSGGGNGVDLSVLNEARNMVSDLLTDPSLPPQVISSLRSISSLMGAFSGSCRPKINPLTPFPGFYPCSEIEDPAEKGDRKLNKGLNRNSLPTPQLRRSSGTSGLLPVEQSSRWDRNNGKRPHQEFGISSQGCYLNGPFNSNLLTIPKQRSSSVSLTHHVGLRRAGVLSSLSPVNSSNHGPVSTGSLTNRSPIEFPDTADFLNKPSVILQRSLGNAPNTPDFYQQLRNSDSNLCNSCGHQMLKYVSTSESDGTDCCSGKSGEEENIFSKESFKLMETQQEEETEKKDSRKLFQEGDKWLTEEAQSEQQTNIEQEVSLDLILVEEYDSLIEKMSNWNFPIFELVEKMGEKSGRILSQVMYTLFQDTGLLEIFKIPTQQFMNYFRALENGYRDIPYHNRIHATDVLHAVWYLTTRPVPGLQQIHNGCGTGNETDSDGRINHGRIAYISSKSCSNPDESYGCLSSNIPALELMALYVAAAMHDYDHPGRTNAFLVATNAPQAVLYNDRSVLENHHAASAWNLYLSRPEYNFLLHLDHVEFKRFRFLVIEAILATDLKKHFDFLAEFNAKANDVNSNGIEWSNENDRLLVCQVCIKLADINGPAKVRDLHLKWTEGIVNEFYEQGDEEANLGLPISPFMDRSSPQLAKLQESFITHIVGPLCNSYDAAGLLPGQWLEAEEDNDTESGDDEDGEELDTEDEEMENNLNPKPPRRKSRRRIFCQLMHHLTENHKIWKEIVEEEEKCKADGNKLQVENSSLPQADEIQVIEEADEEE

Row | IC50 [µM] | Compound
1 | > 100 | COc1cccc(COc2cccc(N3CC(c4ccc(OC)c(OC5CCCC5)c4)CC3=O)c2)c1 (centres undefined)
2 | > 100 | COc1cccc(COc2cc(C(=O)NN(C)C)cc(N3CC(c4ccc(OC)c(OC5CCCC5)c4)CC3=O)c2)c1 (centres undefined)
3 | > 100 | COc1ccc([C@@H]2CNC(=O)C2)cc1OC1CCCC1 (racemic) [Adeo]
4 | > 100 | COc1cccc(COc2cc(C(=O)O)cc(N3CC(c4ccc(OC)c(OC5CCCC5)c4)CC3=O)c2)c1 (centres undefined)
